Assay results taken from publication PMC8478262 (Blood Cancer Discovery, 2021).
Read-outs that look alike come from different tables or passages of the source.

How the values were obtained:
[1] = system: MOLM-14 cells; format: cell-based; details: for increase in IC50 (inhibition) in the presence of 50% human plasma: 50% human plasma vs 10% FBS
[2] = system: FLT3; format: cell-based
[3] = system: Ba/F3-FLT3/ITD-Luc cells; format: in vivo, BALB/c mice
[4] = system: HL-60 cells; assay: Antiproliferative effect of staurosporine on HL-60 cells in the presence of AGP; format: cell-based; details: until saturating concentrations of drug were used
[5] = Human AGP levels and tolerability in mice after intraperitoneal injection; format: in vivo; details: 0.3 g/kg i.p.

## CCc1nc(C(N)=O)c(Nc2ccc(N3CCC(N4CCN(C)CC4)CC3)c(OC)c2)nc1NC1CCOCC1 [gilteritinib]
[1]; 50% human plasma or 50 mg/dL AGP, 48 h MTT
  effect of plasma proteins on activity: minimally affected

## C[C@]12O[C@H](C[C@]1(O)CO)n1c3ccccc3c3c4c(c5c6ccccc6n2c5c31)CNC4=O [lestaurtinib]
[1]; 50% human plasma from healthy donors, 48 h
  IC50 in 50% human plasma compared with 10% FBS: IC50s were no longer reached
[1]; 48 h MTT
  increase in IC50 (inhibition) in the presence of 50% human plasma: greater than 100 fold
[1]; AGP 31 µg/mL – 2 mg/mL, 48 h MTT
  activity across a range of AGP concentrations: appreciable activity is seen only at AGP concentrations less than one tenth of physiologic human levels
[1]; bovine AGP adjusted to human-comparable levels
  IC50 increase by bovine AGP: ~5 fold
[2]; 10 nmol/L and 100 nmol/L TKI, 50% human plasma
  FLT3 phosphorylation inhibition in the presence of human plasma: no appreciable FLT3 TKI activity

## CO[C@@H]1[C@H](N(C)C(=O)c2ccccc2)C[C@H]2O[C@]1(C)n1c3ccccc3c3c4c(c5c6ccccc6n2c5c31)C(=O)NC4 [midostaurin]
[3]; midostaurin alone, oral gavage 4 days
  response of transplanted FLT3/ITD cells (bioluminescence day 9): regression of the cells
[3]; midostaurin plus intraperitoneal human AGP
  response of transplanted FLT3/ITD cells (bioluminescence day 9): progression of the cells comparable with that seen in the control animals

## CC#C[C@]1(O)CC[C@H]2[C@@H]3CCC4=CC(=O)CCC4=C3[C@@H](c3ccc(N(C)C)cc3)C[C@@]21C [mifepristone]
[1]; at concentrations of maximal effect, no TKI
  effect of mifepristone alone on cell growth: no appreciable effect on cell growth
[1]; no AGP
  impact upon TTT-3002 dose–response curves in the absence of AGP: had no impact
[3]; midostaurin plus human AGP plus oral mifepristone
  response of transplanted FLT3/ITD cells (bioluminescence day 9): regression of the transplanted cells comparable with those of the midostaurin alone–treated mice
[2]; mifepristone alone
  effect alone upon FLT3 autophosphorylation or downstream signaling: no effect

## CC(C)(C)c1cc(NC(=O)Nc2ccc(-c3cn4c(n3)sc3cc(OCCN5CCOCC5)ccc34)cc2)no1 [quizartinib]
[1]; 48 h MTT
  increase in IC50 (inhibition) in the presence of 50% human plasma: 37 fold

## CNC(=O)c1cc(Oc2ccc(NC(=O)Nc3ccc(Cl)c(C(F)(F)F)c3)cc2)ccn1 [sorafenib]
[1]; 48 h MTT
  increase in IC50 (inhibition) in the presence of 50% human plasma: greater than 100 fold

## CN[C@@H]1C[C@H]2O[C@@](C)([C@@H]1OC)n1c3ccccc3c3c4c(c5c6ccccc6n2c5c31)C(=O)NC4 [staurosporine]
[4]
  antiproliferative activity in the presence of AGP: no appreciable activity

## human AGP: alpha-1-acid glycoprotein purified from human plasma (Sigma), injected i.p. into mice
[5]
  terminal half-life: approximately 17 hours
